Source: patent US20220313629A1, “TRANSIENT POTENTIAL MELASTATIN 8 (TRPM8) ANTAGONISTS AND RELATED METHODS” (MARSHALL UNIVERSITY RESEARCH CORPORATION, priority 2019, published 2022)
Like-named read-outs stand apart in the source and are kept apart here. One block for each molecule: values may come before it.

Key:
Type in all cases: cell-based
[1] = molecular target: TRPM8 (Homo sapiens, UniProt Q7Z2W7); experiment: TRPM8 antagonist activity by Fura-2 Ca2+ imaging in HEK-293 cells stably expressing human TRPM8; conditions: for IC50: read-out: Functional Activity hTRPM8 potency IC50 ± SEM
[2] = molecular target: human TRPA1 (Homo sapiens, UniProt O75762); experiment: TRPA1 agonist and antagonist Ca2+ flux assay (FLIPR, Fluo-8) in HEK293 cells stably expressing human TRPA1
[3] = molecular target: human TRPV1 (Homo sapiens, UniProt Q8NER1); experiment: TRPV1 agonist and antagonist Ca2+ flux assay (FLIPR, Fluo-8) in HEK293 cells stably expressing human TRPV1
[4] = inhibition of icilin (500 nM)-evoked Ca2+ entry, HEK-293 cells stably expressing hTRPM8, mean ± SEM, three independent experiments
[5] = HEK293; read-out: hTRPA1 % Inhibition (n = 3)
[6] = tested at 100 nM; normalized to Emax of AITC (300 μM)
[7] = tested at 1 μM; normalized to Emax of AITC (300 μM)
[8] = HEK293; read-out: hTRPV1 % Inhibition (n = 3)
[9] = tested at 100 nM; normalized to Emax of capsaicin (3 μM)
[10] = tested at 1 μM; normalized to Emax of capsaicin (3 μM)
[11] = HEK293, read-out: hTRPA1 % Inhibition (n = 3)
[12] = HEK293, read-out: hTRPV1 % Inhibition (n = 3)
[13] = at concentrations 13- to 25-fold higher than hTRPM8 IC50
[14] = HEK293; read-out: % Activation Mean ± SEM (n = 5), TRPV1 antagonist data (Percentage Inhibition Normalized to EC80 Control)
[15] = tested at 30 nM; normalized to Emax of AITC (300 μM)
[16] = tested at 30 nM; normalized to Emax of capsaicin (3 μM)

human TRPV1, sequence (Q8NER1 whole entry): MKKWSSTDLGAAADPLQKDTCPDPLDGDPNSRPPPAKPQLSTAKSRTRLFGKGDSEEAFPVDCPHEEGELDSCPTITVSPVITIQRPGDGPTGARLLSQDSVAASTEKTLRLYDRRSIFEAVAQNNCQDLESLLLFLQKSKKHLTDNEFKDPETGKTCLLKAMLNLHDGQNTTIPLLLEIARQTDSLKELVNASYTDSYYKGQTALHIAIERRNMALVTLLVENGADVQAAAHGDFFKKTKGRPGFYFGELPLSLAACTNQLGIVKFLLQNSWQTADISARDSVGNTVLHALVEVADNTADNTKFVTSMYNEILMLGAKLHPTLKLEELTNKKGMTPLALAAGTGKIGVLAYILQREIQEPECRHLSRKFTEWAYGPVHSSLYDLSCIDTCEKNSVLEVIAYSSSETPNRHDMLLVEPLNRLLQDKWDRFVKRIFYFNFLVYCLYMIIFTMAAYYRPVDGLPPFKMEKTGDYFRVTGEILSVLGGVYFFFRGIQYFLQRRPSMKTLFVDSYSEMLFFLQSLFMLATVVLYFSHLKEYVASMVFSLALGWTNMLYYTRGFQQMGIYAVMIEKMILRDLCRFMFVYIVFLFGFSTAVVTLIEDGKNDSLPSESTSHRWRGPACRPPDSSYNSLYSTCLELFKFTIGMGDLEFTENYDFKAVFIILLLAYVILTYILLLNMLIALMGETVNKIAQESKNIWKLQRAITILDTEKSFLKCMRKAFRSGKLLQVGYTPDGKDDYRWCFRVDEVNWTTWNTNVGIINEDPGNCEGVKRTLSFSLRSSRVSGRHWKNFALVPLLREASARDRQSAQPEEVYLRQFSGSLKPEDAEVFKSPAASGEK
human TRPA1, sequence (O75762 whole entry): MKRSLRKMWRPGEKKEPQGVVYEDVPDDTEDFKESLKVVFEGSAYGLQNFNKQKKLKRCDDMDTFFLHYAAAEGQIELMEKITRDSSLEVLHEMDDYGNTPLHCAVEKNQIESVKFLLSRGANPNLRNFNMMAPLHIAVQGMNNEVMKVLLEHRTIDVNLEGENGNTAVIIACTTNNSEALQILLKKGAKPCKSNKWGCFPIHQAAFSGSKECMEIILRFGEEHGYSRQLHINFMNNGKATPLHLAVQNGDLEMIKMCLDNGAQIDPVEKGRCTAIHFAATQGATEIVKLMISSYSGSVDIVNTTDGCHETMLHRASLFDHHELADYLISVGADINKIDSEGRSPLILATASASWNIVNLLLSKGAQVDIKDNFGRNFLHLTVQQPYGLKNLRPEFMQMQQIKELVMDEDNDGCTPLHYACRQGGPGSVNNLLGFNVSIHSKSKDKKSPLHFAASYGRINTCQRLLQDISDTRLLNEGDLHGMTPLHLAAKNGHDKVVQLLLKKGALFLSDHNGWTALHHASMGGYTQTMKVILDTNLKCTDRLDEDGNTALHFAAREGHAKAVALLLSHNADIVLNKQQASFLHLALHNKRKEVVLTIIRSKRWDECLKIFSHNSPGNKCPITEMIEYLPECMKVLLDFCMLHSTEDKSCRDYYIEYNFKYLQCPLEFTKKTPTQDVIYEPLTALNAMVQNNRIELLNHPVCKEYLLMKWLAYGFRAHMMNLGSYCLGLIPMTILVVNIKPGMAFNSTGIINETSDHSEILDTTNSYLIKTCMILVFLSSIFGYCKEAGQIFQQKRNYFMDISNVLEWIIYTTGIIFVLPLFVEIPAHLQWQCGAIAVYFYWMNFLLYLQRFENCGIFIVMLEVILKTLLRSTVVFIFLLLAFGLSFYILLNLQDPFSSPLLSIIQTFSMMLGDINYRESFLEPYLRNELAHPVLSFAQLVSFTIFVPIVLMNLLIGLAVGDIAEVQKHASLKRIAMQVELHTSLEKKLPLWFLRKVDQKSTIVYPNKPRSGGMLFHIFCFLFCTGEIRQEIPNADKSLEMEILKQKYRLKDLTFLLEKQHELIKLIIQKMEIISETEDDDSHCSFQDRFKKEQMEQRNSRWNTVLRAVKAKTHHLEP
TRPM8, sequence (Q7Z2W7 whole entry): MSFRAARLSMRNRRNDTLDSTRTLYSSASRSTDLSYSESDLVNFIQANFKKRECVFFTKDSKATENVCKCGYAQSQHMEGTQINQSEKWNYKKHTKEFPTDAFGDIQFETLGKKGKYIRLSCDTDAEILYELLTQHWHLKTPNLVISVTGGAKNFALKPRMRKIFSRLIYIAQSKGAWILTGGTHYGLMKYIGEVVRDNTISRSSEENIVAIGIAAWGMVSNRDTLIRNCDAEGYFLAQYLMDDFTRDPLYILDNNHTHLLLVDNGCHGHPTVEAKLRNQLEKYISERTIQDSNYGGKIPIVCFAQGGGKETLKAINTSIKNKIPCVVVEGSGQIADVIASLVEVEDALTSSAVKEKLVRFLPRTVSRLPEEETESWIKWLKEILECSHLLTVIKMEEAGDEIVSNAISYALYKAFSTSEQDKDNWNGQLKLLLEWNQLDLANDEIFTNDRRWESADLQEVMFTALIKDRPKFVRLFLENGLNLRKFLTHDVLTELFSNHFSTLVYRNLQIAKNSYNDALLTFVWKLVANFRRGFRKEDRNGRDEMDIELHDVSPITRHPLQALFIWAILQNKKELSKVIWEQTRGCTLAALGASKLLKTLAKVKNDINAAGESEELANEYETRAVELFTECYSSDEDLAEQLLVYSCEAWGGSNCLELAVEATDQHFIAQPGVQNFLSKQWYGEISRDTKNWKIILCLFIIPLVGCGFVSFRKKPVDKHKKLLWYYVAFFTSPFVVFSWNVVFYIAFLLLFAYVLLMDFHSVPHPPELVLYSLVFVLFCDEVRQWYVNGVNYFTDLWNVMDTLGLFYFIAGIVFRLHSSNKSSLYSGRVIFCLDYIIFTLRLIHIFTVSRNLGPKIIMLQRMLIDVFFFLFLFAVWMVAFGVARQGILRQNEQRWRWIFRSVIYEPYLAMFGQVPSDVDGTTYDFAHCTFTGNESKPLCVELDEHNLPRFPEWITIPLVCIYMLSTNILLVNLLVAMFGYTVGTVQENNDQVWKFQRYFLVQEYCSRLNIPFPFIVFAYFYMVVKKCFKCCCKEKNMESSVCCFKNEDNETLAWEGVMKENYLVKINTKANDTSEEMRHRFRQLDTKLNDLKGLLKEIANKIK

SMILES: O=C(NC1CCCc2ccccc21)c1ccc(-c2ccccc2)cc1 (stereo not drawn) [Compound 9, N-(1,2,3,4-tetrahydronaphthalen-1-yl)-[1,1′-biphenyl]-4-carboxamide]
loss of potency vs. Compound 8 ([1]; icilin Ca2+ assay): 3 fold
IC50 [1]: 55000 ± 1000 nM

SMILES: O=C(NC1CCc2ccccc2C1)c1ccc(-c2ccccc2)cc1 (stereo not drawn) [Compound 11, N-(1,2,3,4-tetrahydronaphthalen-2-yl)-[1,1′-biphenyl]-4-carboxamide]
decrease of hTRPM8 potency (vs. Compound 10) ([1]; icilin Ca2+ assay): 9 fold
IC50 [1]: 52 ± 1 nM
inhibition at 0.1 µM [2, 11]: 3 ± 6%
inhibition at 1 µM [2, 11]: 4 ± 1%
hTRPA1 % Activation (n = 3-5) [2, 6]: −0.1 ± 0.5%
hTRPA1 % Activation (n = 3-5) [2, 7]: −0.8 ± 0.6%
inhibition at 0.1 µM [3, 12]: -3.1 ± 0.6%
inhibition at 1 µM [3, 12]: 13 ± 3%
hTRPV1 % Activation (n = 3) [3, 9]: −1.8 ± 0.9%
hTRPV1 % Activation (n = 3) [3, 10]: −0.7 ± 1.5%

SMILES: O=C(NC1CCC2CCCCC2C1)c1ccc(-c2ccccc2)cc1 (mixture of isomers) [Compound 10, N-(decahydronaphthalen-2-yl)-[1,1′-biphenyl]-4-carboxamide]
enhancement of TRPM8 potency relative to Compound 8 ([1]; icilin Ca2+ assay): 3,500 fold
higher potency than Compound 5 and Compound 7 ([1]; icilin Ca2+ assay): 10 fold
IC50 [1, 4]: 6 ± 1 nM
IC50 [1]: ≤ 10 nM
inhibition at 0.01 µM [2, 5]: -8 ± 3%
inhibition at 0.1 µM [2, 5]: -1 ± 10%
effect on hTRPA1-mediated responses (intrinsic and antagonist activity) [2, 13]: does not activate or inhibit
hTRPA1 % Activation (n = 3-5) ([2]; tested at 10 nM; normalized to Emax of AITC (300 μM)): 0.2 ± 0.4%
hTRPA1 % Activation (n = 3-5) [2, 6]: −1.1 ± 0.2%
inhibition at 0.01 µM [3, 8]: -13 ± 4%
inhibition at 0.1 µM [3, 8]: 2 ± 3%
effect on hTRPV1-mediated responses (intrinsic and antagonist activity) [3, 13]: does not activate or inhibit
hTRPV1 % Activation (n = 3) ([3]; tested at 10 nM; normalized to Emax of capsaicin (3 μM)): 2.4 ± 0.8%
hTRPV1 % Activation (n = 3) [3, 9]: 2.3 ± 0.9%

SMILES: Oc1cc2c(cc1O)CN(C(=S)NCCc1ccc(Cl)cc1)CCC2 [Capsazepine, reference compound]
inhibition at 0.003 µM [3, 14]: 1.6 ± 4.2%
inhibition at 0.01 µM [3, 14]: 0.1 ± 1.3%
inhibition at 0.03 µM [3, 14]: 1.1 ± 1.7%
inhibition at 0.1 µM [3, 14]: 7.1 ± 2.2%
inhibition at 0.3 µM [3, 14]: 23.4 ± 2.5%
inhibition at 1 µM [3, 14]: 94.2 ± 1.1%
inhibition at 3 µM [3, 14]: 100.6 ± 0.3%
inhibition at 10 µM [3, 14]: 101.2 ± 0.5%
IC50 ([3]; capsaicin 100 nM; read-out: IC50, blockade of capsaicin-activated hTRPV1 responses): 451 ± 48 nM

SMILES: CC(C)[C@@H]1CC[C@@H](C)C[C@H]1NC(=O)c1ccc(-c2ccccc2)cc1 [Compound 1, reference compound]
IC50 [1]: 16000 ± 1000 nM

SMILES: O=C(NC1CCCCC1)c1ccc(-c2ccccc2)cc1 [Compound 3, N-cyclohexyl-[1,1′-biphenyl]-4-carboxamide]
IC50 [1, 4]: 49000 ± 1000 nM

SMILES: C=CCN=C=S [AITC, Allyl isothiocyanate, reference compound]
% Activation Mean ± SEM (n = 5), TRPA1 agonist data ([2]; 100 nM; normalized to Emax of AITC): −0.8 ± 0.4%
% Activation Mean ± SEM (n = 5), TRPA1 agonist data ([2]; 300 nM; normalized to Emax of AITC): −0.5 ± 0.2%
% Activation Mean ± SEM (n = 5), TRPA1 agonist data ([2]; 1,000 nM; normalized to Emax of AITC): −0.5 ± 0.2%
% Activation Mean ± SEM (n = 5), TRPA1 agonist data ([2]; 3,000 nM; normalized to Emax of AITC): −1.2 ± 0.2%
% Activation Mean ± SEM (n = 5), TRPA1 agonist data ([2]; 10,000 nM; normalized to Emax of AITC): 68.8 ± 2.9%
% Activation Mean ± SEM (n = 5), TRPA1 agonist data ([2]; 30,000 nM; normalized to Emax of AITC): 78.5 ± 1.0%
% Activation Mean ± SEM (n = 5), TRPA1 agonist data ([2]; 100,000 nM; normalized to Emax of AITC): 94.2 ± 2.4%
% Activation Mean ± SEM, TRPA1 agonist data ([2]; 300,000 nM; normalized to Emax of AITC; n = 10): 100.0 ± 1.3 %

SMILES: CC1CCC(C(C)C)C(NC(=O)c2ccc(-c3ccccc3)cc2)C1 (mixture of isomers) [Compound 2, N-(2-isopropyl-5-methylcyclohexyl)-[1,1′-biphenyl]-4-carboxamide]
increase of hTRPM8 activity relative to Compound 1 ([1]; icilin Ca2+ assay): 30 fold
IC50 [1, 4]: 468 ± 1 nM

SMILES: O=C(NC1CCC2CCCCC2C1)c1ccc(-c2ccccc2)cc1 (racemic) [Compound 12, N-((2SR,9RS,10SR)-decahydronaphthalen-2-yl)-[1,1′-biphenyl]-4-carboxamide]
inhibition at 0.003 µM [2, 5]: -0.3 ± 3%
inhibition at 0.03 µM [2, 5]: 5 ± 9%
effect on hTRPA1-mediated responses (intrinsic and antagonist activity) [2, 13]: do not affect
hTRPA1 % Activation (n = 3-5) ([2]; tested at 3 nM; normalized to Emax of AITC (300 μM)): −2.3 ± 1.0%
hTRPA1 % Activation (n = 3-5) [2, 15]: −2.1 ± 0.5%
inhibition at 0.003 µM [3, 8]: -12 ± 3%
inhibition at 0.03 µM [3, 8]: 1 ± 2%
effect on hTRPV1-mediated responses (intrinsic and antagonist activity) [3, 13]: do not affect
hTRPV1 % Activation (n = 3) ([3]; tested at 3 nM; normalized to Emax of capsaicin (3 μM)): 2 ± 1%
hTRPV1 % Activation (n = 3) [3, 16]: 3 ± 1%

SMILES: COc1cc(CNC(=O)CCCC/C=C/C(C)C)ccc1O [Capsaicin, reference compound]
% Activation Mean ± SEM (n = 5), TRPV1 agonist data ([3]; 1 nM; normalized to Emax of capsaicin): −0.2 ± 1.0%
% Activation Mean ± SEM (n = 5), TRPV1 agonist data ([3]; 3 nM; normalized to Emax of capsaicin): −1.7 ± 0.7%
% Activation Mean ± SEM (n = 5), TRPV1 agonist data ([3]; 10 nM; normalized to Emax of capsaicin): 15.2 ± 0.6%
% Activation Mean ± SEM (n = 5), TRPV1 agonist data ([3]; 30 nM; normalized to Emax of capsaicin): 72.4 ± 2.3%
% Activation Mean ± SEM (n = 5), TRPV1 agonist data ([3]; 100 nM; normalized to Emax of capsaicin): 81.4 ± 3.3%
% Activation Mean ± SEM (n = 5), TRPV1 agonist data ([3]; 300 nM; normalized to Emax of capsaicin): 91.8 ± 3.7%
% Activation Mean ± SEM (n = 5), TRPV1 agonist data ([3]; 1,000 nM; normalized to Emax of capsaicin): 101.6 ± 2.0%
% Activation Mean ± SEM, TRPV1 agonist data ([3]; 3,000 nM; normalized to Emax of capsaicin; n = 10): 100.0 ± 1.8 %
% Activation, EC80 agonist control of the TRPV1 antagonist assay ([3]; Capsaicin EC80, 100 nM; normalization control): 100%

Continued, values first:

IC50 [1, 4]: 52 ± 1 nM
inhibition at 0.1 µM [2, 5]: -2 ± 5%
inhibition at 1 µM [2, 5]: 4 ± 5%
hTRPA1 % Activation (n = 3-5) [2, 6]: 0.1 ± 0.7%
hTRPA1 % Activation (n = 3-5) [2, 7]: 0.8 ± 0.5%
inhibition at 0.1 µM [3, 8]: -3 ± 4%
inhibition at 1 µM [3, 8]: 24 ± 1%
hTRPV1 % Activation (n = 3) [3, 9]: 0.0 ± 1.0%
hTRPV1 % Activation (n = 3) [3, 10]: 0.6 ± 1.5%
SMILES: O=C(NC1CCCCCC1)c1ccc(-c2ccccc2)cc1 [Compound 5, N-cycloheptyl-[1,1′-biphenyl]-4-carboxamide]

IC50 [1, 4]: 692 ± 1 nM
SMILES: O=C(NC1CC2CCC(C2)C1)c1ccc(-c2ccccc2)cc1 (stereo not drawn) [Compound 6, N-(bicyclo[3.2.1]octan-3-yl)-[1,1′-biphenyl]-4-carboxamide]

IC50 [1, 4]: 62 ± 1 nM
inhibition at 0.1 µM [2, 5]: -13 ± 4%
inhibition at 1 µM [2, 5]: 0.2 ± 6%
hTRPA1 % Activation (n = 3-5) [2, 6]: −1.0 ± 0.1%
hTRPA1 % Activation (n = 3-5) [2, 7]: −1.5 ± 0.9%
inhibition at 0.1 µM [3, 8]: -4 ± 4%
inhibition at 1 µM [3, 8]: 14 ± 4%
hTRPV1 % Activation (n = 3) [3, 9]: −1.9 ± 0.7%
hTRPV1 % Activation (n = 3) [3, 10]: −3.2 ± 0.6%
SMILES: O=C(NC1CCCCCCC1)c1ccc(-c2ccccc2)cc1 [Compound 7, N-cyclooctyl-[1,1′-biphenyl]-4-carboxamide]

IC50 [1, 4]: 40 ± 1 nM
inhibition at 0.1 µM [2, 5]: -1 ± 5%
inhibition at 1 µM [2, 5]: -7 ± 9%
effect on hTRPA1-mediated responses (intrinsic and antagonist activity) [2, 13]: do not affect
hTRPA1 % Activation (n = 3-5) [2, 6]: 0.2 ± 0.5%
hTRPA1 % Activation (n = 3-5) [2, 7]: −0.2 ± 1.1%
inhibition at 0.1 µM [3, 8]: -3 ± 4%
inhibition at 1 µM [3, 8]: 5 ± 2%
effect on hTRPV1-mediated responses (intrinsic and antagonist activity) [3, 13]: do not affect
hTRPV1 % Activation (n = 3) [3, 9]: −1.0 ± 0.4%
hTRPV1 % Activation (n = 3) [3, 10]: 0.7 ± 0.2%
SMILES: O=C(NC1CCC2(CCCCC2)CC1)c1ccc(-c2ccccc2)cc1 [Compound 13, N-(spiro[5.5]undecan-3-yl)-[1,1′-biphenyl]-4-carboxamide]

IC50 [1]: 7100 ± 900 nM
SMILES: O=C(NC1CC2CCC1C2)c1ccc(-c2ccccc2)cc1 (single isomer, unassigned) [Compound 4, N-(bicyclo[2.2.1]heptan-2-yl)-[1,1′-biphenyl]-4-carboxamide]

IC50 [1, 4]: 21000 ± 1000 nM
SMILES: O=C(NC1CCCC2CCCCC21)c1ccc(-c2ccccc2)cc1 (mixture of isomers) [Compound 8, N-(decahydronaphthalen-1-yl)-[1,1′-biphenyl]-4-carboxamide]

IC50 [1, 4]: 16 ± 1 nM
inhibition at 0.3 µM [2, 5]: -7 ± 7%
effect on hTRPA1-mediated responses (intrinsic and antagonist activity) [2, 13]: do not affect
hTRPA1 % Activation (n = 3-5) [2, 15]: −2.6 ± 0.5%
hTRPA1 % Activation (n = 3-5) ([2]; tested at 300 nM; normalized to Emax of AITC (300 μM)): −1.5 ± 0.4%
inhibition at 0.03 µM [3, 8]: -6 ± 5%
inhibition at 0.3 µM [3, 8]: 3 ± 4%
effect on hTRPV1-mediated responses (intrinsic and antagonist activity) [3, 13]: do not affect
hTRPV1 % Activation (n = 3) [3, 16]: 1.0 ± 0.2%
hTRPV1 % Activation (n = 3) ([3]; tested at 300 nM; normalized to Emax of capsaicin (3 μM)): 1 ± 2%
SMILES: O=C(NC12CC3CC(CC(C3)C1)C2)c1ccc(-c2ccccc2)cc1 [Compound 15, N-(adamantan-1-yl)-[1,1′-biphenyl]-4-carboxamide]
